Data: patent US5026699A, “Use of 5,11-dihydro-6H-pyrido[2,3-b][1,4]-benzodiazepin-6-ones substituted in the 11-position for treating bradycardia and bradyarrhythmia in human and veterinary medicine” (Dr. Karl Thomae GmbH, priority 1988, dated 1991)

Columns and labels:
[1] = tested on: acetylcholine effect on heart rate; experiment: Inhibition of the effect of acetylcholine on heart rate in guinea pigs; assay type: in vivo, guinea pig; conditions: Cavia porcellus, 5 min; read-out: -log ED50, Heart (converted)
Description: (§1) 5 minutes after the administration of the test substance, 10 microgram/kg of acetylcholine were simultaneously injected intravenously and intra-arterially into anesthetized guinea pigs. The heart rate was recorded directly by extracorporeal derivation of the ECG, the expiration resistance according to Konzett-Rossler and contraction of the exposed bladder. In order to determine the inhibition of the acetylcholine activity on the organs under investigation, dosage/activity curves were recorded and from them -log ED50 values were determined.

[2] = tested on: acetylcholine effect on bladder contraction; experiment: Inhibition of the effect of acetylcholine on the bladder in guinea pigs; assay type: in vivo, guinea pig; conditions: Cavia porcellus, 5 min; read-out: -log ED50, Bladder (converted)
Description: as §1

[3] = tested on: acetylcholine effect on bronchi (expiration resistance); experiment: Inhibition of the effect of acetylcholine on bronchi in guinea pigs; assay type: in vivo, guinea pig; conditions: Cavia porcellus, 5 min; read-out: -log ED50, Bronchi (converted)
Description: as §1

[4] = biological target: T1, muscarinic receptors, heart (Rattus norvegicus, UniProt P10980); experiment: Receptor binding test in vitro, 3H-NMS displacement, whole heart homogenate; conditions: rat whole heart homogenate 1:400; 0.3 nanomolar 3H-NMS; 30° C., 45 minutes; read-out: Receptor Binding Tests IC50, Heart
T1 construct: The whole heart was cut up with scissors; from tissue; host or cells: whole heart of male Sprague-Dawley rats, homogenate
T1 sequence (P10980 1-466): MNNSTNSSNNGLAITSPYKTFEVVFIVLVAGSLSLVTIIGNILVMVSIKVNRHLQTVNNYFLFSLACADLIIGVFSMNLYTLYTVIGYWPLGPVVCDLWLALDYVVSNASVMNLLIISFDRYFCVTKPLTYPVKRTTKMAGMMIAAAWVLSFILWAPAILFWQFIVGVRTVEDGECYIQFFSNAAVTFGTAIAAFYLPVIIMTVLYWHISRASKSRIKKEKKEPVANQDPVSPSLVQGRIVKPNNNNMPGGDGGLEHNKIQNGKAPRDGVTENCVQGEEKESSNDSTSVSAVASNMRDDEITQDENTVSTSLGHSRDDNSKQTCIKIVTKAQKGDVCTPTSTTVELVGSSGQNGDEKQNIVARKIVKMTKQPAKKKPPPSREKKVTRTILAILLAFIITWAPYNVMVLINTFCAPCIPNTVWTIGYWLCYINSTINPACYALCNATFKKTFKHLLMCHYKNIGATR
Description: (§2) The organs were donated by male Sprague-Dawley rats weighing 180-220 g. After the heart and submandular gland and cerebral cortex had been removed, all other steps were carried out in ice cold Hepes HCl buffer (pH 7.4; 100 millimolar NaCl, 10 millimolar MgCl2). The whole heart was cut up with scissors. All the organs were then homogenized in a Potter apparatus.
(§3) For the binding test the homogenized organs were diluted as follows:
(§4) The homogenized organs were incubated at a certain concentration of the radioligand and at a series of concentrations of the non-radioactive test substances in an Eppendorf centrifuge tube at 30° C. Incubation lasted 45 minutes. The radioligand used was 0.3 nanomolar ^3 H--N- methylscopolamine (^3 H-NMS). Incubation was ended by the addition of ice cold buffer followed by vacuum filtration. The filters were rinsed with cold buffer and their radioactivity was determined. It represents the sum of specific and non-specific binding of ^3 H-NMS. The proportion of non-specific binding was defined as the radioactivity which was bound in the presence of 1 micromolar quinuclidinylbenzylate. Each measurement was taken four times. The IC50 values of the non-labelled test substances were determined graphically. They represent that concentration of test substance at which the specific binding of ^3 H-NMS to the muscarinic receptors in the various organs was inhibited by 50%.

[5] = tested on: rise in blood pressure caused by McN-A-343 (M1); experiment: M1/M2 selectivity in the rat: reduction of rise in blood pressure caused by McN-A-343; assay type: in vivo; conditions: iv, 5 min, male THOM rats, i.v., dose reducing rise in blood pressure (M1) caused by 0.3 mg/kg McN-A-343 by 50%, read-out: -log ED50, Blood pressure (converted)
Description: (§5) The dosage of the substances which reduced either the vagal bradycardia (M2) or the rise in blood pressure (M1) by 50% was determined graphically. For the results see Table II.

vagal bradycardia (M2) = experiment: M1/M2 selectivity in the rat: reduction of bradycardia caused by vagus stimulation; assay type: in vivo; conditions: iv, 5 min, male THOM rats, i.v., dose reducing vagal bradycardia (M2) by 50%, 5 minutes after injection, read-out: -log ED50, Heart (converted)
Description: as §5

[6] = tested on: secretion of saliva initiated by pilocarpine; experiment: Salivation-inhibiting effect in the rat (pilocarpine-induced); assay type: in vivo; conditions: iv, male THOM rats anesthetized with urethane, i.v., dose reducing volume of saliva by 50%, 2 mg/kg s.c. pilocarpine, read-out: -log ED50, Salivation inhibition (converted)
Description: The secretion of saliva was initiated by subcutaneous administration of 2 mg/kg of pilocarpine. The saliva was absorbed with blotting paper and the surface area covered was measured every 5 minutes by planimetry. The dosage of the substance which reduced the volume of saliva by 50% was determined graphically. For the results see Table II.

[7] = biological target: muscarinic receptors, cerebral cortex; experiment: Receptor binding test in vitro, 3H-NMS displacement, cerebral cortex homogenate; conditions: rat cerebral cortex homogenate 1:3000; 0.3 nanomolar 3H-NMS; 30° C., 45 minutes; read-out: Receptor Binding Tests IC50, Cortex
Description: as §2, §3, §4

[8] = biological target: T2, muscarinic receptors, submandibular gland (Rattus norvegicus, UniProt P08483); experiment: Receptor binding test in vitro, 3H-NMS displacement, submandibular gland homogenate; conditions: rat submandibular gland homogenate 1:400; 0.3 nanomolar 3H-NMS; 30° C., 45 minutes; read-out: Receptor Binding Tests IC50, Submandibular gland
T2 construct: All the organs were then homogenized in a Potter apparatus; from tissue; host or cells: submandibular gland of male Sprague-Dawley rats, homogenate
T2 sequence (P08483 whole entry): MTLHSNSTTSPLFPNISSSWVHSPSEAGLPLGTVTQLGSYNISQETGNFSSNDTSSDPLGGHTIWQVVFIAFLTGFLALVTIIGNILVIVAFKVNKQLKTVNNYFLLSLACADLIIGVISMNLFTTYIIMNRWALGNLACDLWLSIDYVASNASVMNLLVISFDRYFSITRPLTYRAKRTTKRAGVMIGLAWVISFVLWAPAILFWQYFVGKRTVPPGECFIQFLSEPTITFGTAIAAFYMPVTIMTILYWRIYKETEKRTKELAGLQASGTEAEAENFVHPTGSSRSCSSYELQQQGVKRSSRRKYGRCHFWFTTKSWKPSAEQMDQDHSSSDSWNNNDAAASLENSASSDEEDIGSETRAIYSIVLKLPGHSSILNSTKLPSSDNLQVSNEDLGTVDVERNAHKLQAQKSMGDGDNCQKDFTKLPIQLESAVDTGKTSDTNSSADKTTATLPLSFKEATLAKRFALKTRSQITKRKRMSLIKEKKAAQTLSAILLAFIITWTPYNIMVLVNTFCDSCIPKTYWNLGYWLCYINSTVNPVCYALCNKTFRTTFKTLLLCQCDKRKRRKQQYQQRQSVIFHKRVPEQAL
Description: as §2, §3, §4

Row | SMILES | ED50 [1] [µmol/kg] | ED50 [2] [µmol/kg] | ED50 [3] [µmol/kg] | IC50 [4] [nM] | ED50 [5] [µmol/kg] | ED50 (vagal bradycardia (M2)) [µmol/kg] | ED50 [6] [µmol/kg] | IC50 [7] [nM] | IC50 [8] [nM]
1 | CN1CCCC1CCNCC(=O)N1c2ccccc2C(=O)Nc2cccnc21 (stereo not drawn) [A, 5,11-dihydro-11-[[[2-(1-methyl-2-pyrrolidinyl)ethyl]amino]acetyl]-6H-pyrido[2,3-b][1,4]benzodiazepin-6-one] | 0.0977 | 0.537 | 0.102 |  |  |  |  |  | 
2 | CCN1CCCC1CN(C)CC(=O)N1c2ccccc2C(=O)Nc2cccnc21 (stereo not drawn) [B, 5,11-dihydro-11-[[[(1-ethyl-2-pyrrolidinyl)methyl]methylamino]acetyl]-6H-pyrido[2,3-b][1,4]benzodiazepin-6-one] | 0.0457 | 1.17 | 0.0347 | 6 | 0.141 | 0.00741 | 0.813 | 30 | 50
3 | CCN(CC)CC1CCCCN1CC(=O)N1c2ccccc2C(=O)Nc2cccnc21 (stereo not drawn) [C, 11-[[2-[(diethylamino)methyl]-1-piperidinyl]acetyl]-5,11-dihydro-6H-pyrido[2,3-b][1,4]benzodiazepin-6-one, reference compound] |  |  |  |  |  | 0.38 | 10 |  | 
4 | CN1[C@@H]2CC[C@H]1C[C@@H](OC(=O)C(CO)c1ccccc1)C2 (stereo partly drawn) [E, atropine, reference compound] | 0.02 | 0.0933 |  |  | 0.0457 | 0.0115 |  |  | 
